Data from the supplement of paper PMC10290057.
Counter-ions that a name gives are not always drawn.

Assays:
HCT116 [1] = assay: AC50 cell viability (CellTiter-Glo); higher = less potent; conditions: 48 h
HCT116 [2] = assay: efficacy (fitted maximal change in viability relative to DMSO control); higher = less cytotoxic (negative = loss of viability); conditions: 48 h
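Throughout, for AC50 cell viability (CellTiter-Glo): HCT116 colorectal carcinoma cells screened at five concentrations per compound, luminescent viability scaled between DMSO wells and empty wells on each plate, curves fitted per compound.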
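Throughout, for efficacy (fitted maximal change in viability relative to DMSO control): Luminescence-based viability readout, five doses per compound, normalized against on-plate DMSO and empty-well controls, followed by dose-response curve fitting for every drug.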

| Compound | AC50 cell viability (HCT116 [1]) [µM] | efficacy (HCT116 [2]) [%] |
| --- | --- | --- |
| CNC(=O)[C@@H](NC(=O)[C@H](CC(C)C)[C@H](O)C(=O)NO)C(C)(C)C [Marimastat] | 20.9 | -54.3 |
| NC(=O)Nc1cc(-c2cccc(F)c2)sc1C(=O)N[C@H]1CCCNC1 [AZD-7762] | 0.833 | -101 |
| CNC(=O)[C@H]1O[C@@H](n2cnc3c(NCc4cccc(I)c4)nc(Cl)nc32)[C@H](O)[C@@H]1O [Namodenoson] | 23.5 | -94.8 |
| COc1cc(C(=O)NC(=N)Nc2ccc(C)c(NC(=O)c3ccc(-c4ccccc4)cc3)c2)cc(OC)c1OC [MRT-83] | 7.42 | -47.2 |
| Cc1nc(NC(=O)N2CCC[C@H]2C(N)=O)sc1-c1ccnc(C(C)(C)C(F)(F)F)c1 [Alpelisib] | 14.8 | -64.3 |
| CC(C)C[C@H](NC(=O)[C@@H](NC(=O)c1cccc(-c2ccccc2)n1)[C@@H](C)O)B(O)O [Delanzomib] | 0.0362 | -84.8 |
| CC(C)[C@@H](N(CCCN)C(=O)C1=CC=C(C)C=C1)C/2=C(\CC3=CC=CC=C3)C(=O)C4=C(O2)C=C(Cl)C=C4 | 8.33 | -34.7 |
| CCOC(=N)c1nc2ccc3ncnc(Nc4cc(F)c(F)cc4Cl)c3c2s1 [FX-9847] | 4.68 | -41.6 |
| Clc1ccc(COC(Cn2ccnc2)c2ccc(Cl)cc2Cl)cc1 (stereo unspecified) [Econazole nitrate] | 20.9 | -83.5 |
| Cc1ccc([S+](=O)([O-])Nc2cc(Cl)ccc2C(=O)Nc2nc(-c3ccccc3)cs2)cc1 | 2.63 | -82.5 |
| CC(=O)c1ccc2c(c1)c1cc(C(C)=O)ccc1n2CCNC(C)C [CBL-0137] | 0.417 | -69.6 |
| C/C(=N\Nc1nnc2c(n1)[nH]c1c(C)cccc12)c1ccccn1 [VLX-600] | 0.742 | -87.1 |
| CC1=CC=C2\N=C/3N(CC[C@@]3(O)C(=O)C2=C1)C4=CC=CC=C4 [(-)-Blebbistatin] | 0.132 | -35.7 |
| ClC/1=C(NCCN2CCOCC2)/C(=O)C3=C(C=CC=N3)C1=O [DA-3003-1] | 5.9 | -90.7 |
| CCC[C@H](NC(=O)/C(C#N)=C/c1cccc(Br)n1)c1ccccc1 [Degrasyn] | 26.3 | -104 |
| CC(C)C[C@H](NC(=O)CNC(=O)c1cc(Cl)ccc1Cl)B(O)O [Ixazomib] | 0.0833 | -89.3 |
| COc1ccccc1C(=O)Nc1cc2c(cc1N1CCNC[C@H]1C)n(C)c(=O)n2C [GSK-6853] | 16.6 | -63.8 |
| CC(C)n1cnc2c(NCCCCCCNC(=O)OC(C)(C)C)nc(NCCO)nc21 [CK-59] | 26.3 | -79.7 |
| CN1CCN(CCOc2cc(OC3CCOCC3)c3c(Nc4c(Cl)ccc5c4OCO5)ncnc3c2)CC1 [Saracatinib] | 18.6 | -101 |
| CC(C)(Cc1ccc2ccccc2c1)NC[C@@H](O)COc1cccc(Cl)c1C#N [NPS-2143] | 9.34 | -97.5 |

| Compound | AC50 cell viability (HCT116 [1]) [µM] | efficacy (HCT116 [2]) [%] |
| --- | --- | --- |
| N#CCNC(=O)c1ccc(-c2ccnc(Nc3ccc(N4CCOCC4)cc3)n2)cc1 [Momelotinib] | 3.72 | -74.3 |
| COC1CC(C(=O)c2ccc3c(N)ncc(-c4ccc(-c5cnn(C)c5)cc4)c3n2)C1 (stereo unspecified) [CDK8i-51] | 5.25 | -34.9 |
| NC(=O)/C(=C/n1cnc(-c2cc(C(F)(F)F)cc(C(F)(F)F)c2)n1)c1cncnc1 [Eltanexor] | 0.295 | -78.9 |
| CC(C)(O)[C@H]1CC[C@H](Nc2ccc3ncc(-c4cccc(C(F)(F)F)c4)n3n2)CC1 [TP-3654] | 1.66 | -43.7 |
| CC(C)(O)C[S+](=O)([O-])Nc1ccc2c(c1)CCN(C(=O)COc1cccnc1)C2 [NAMPT-IN-1] | 0.0468 | -92.6 |
| C=CC(=O)Nc1cc2c(Nc3ccc(F)c(Cl)c3)ncnc2cc1OCCCN1CCOCC1 [Canertinib] | 14.8 | -116 |
| CCN1\C(=C(C(=O)NC)/C(=O)C2=C1N=C(C=C2)C#CC(C)(O)COC)N (stereo unspecified) | 18.6 | -31.1 |
| CCNC(=O)c1noc(-c2cc(C(C)C)c(O)cc2O)c1-c1ccc(CN2CCOCC2)cc1 [NVP-AUY922] | 0.105 | -63.2 |
| Cc1cnc(Nc2ccc(F)cc2Cl)nc1-c1c[nH]c(C(=O)N[C@H](CO)c2cccc(Cl)c2)c1 | 4.17 | -115 |
| NC(=O)c1cnc2[nH]ccc2c1NC1C2CC3C[C@H]1CC(O)(C3)C2 (stereo partly specified) [Peficitinib] | 7.42 | -67.2 |
| O=C1\C=C(OC2=C1SC=C2C3=CC=C4OCCOC4=C3)\N5CCOCC5 [SF-2523] | 3.72 | -69.9 |
| Clc1ccc(CCC(Cn2ccnc2)Sc2c(Cl)cccc2Cl)cc1 (stereo unspecified) [Butoconazole nitrate] | 20.9 | -51.6 |
| CC[C@]12\C=C/CN3CC[C@]4([C@@H](N(C)C5=CC(=C(C=C45)[C@]6(C[C@H]7C[C@H](CN(C7)CC8=C6[NH]C9=C8C=CC=C9)C(C)(F)F)C(=O)OC)OC)[C@](O)([C@@H]1OC(C)=O)C(=O)OC)[C@H]23 [Vinflunine] | 0.0986 | -64.1 |
| COc1ccc(N2C(=O)N(c3c(C)cccc3Cl)Cc3cnc(Nc4ccc(C5CCN(C)CC5)cc4OC)nc32)nc1 [YKL-05-099] | 10.5 | -99.4 |
| Cc1[nH]c2ccc(F)cc2c1-c1nc2c3cccnc3c3ncccc3c2[nH]1 [APTO-253] | 0.679 | -77.4 |
| COc1ccc(N(C(=O)Oc2c(C)cccc2C)c2ccnc(Nc3ccc(N4CCN(C)CC4)cc3)n2)c(OC)c1 | 0.661 | -41 |
| Nc1cccc(-c2cc3c(Oc4cccc(O)c4)ncnc3[nH]2)c1 [TWS-119] | 11.8 | -90.2 |
| COc1cc(OC)cc(N(CCNC(C)C)c2ccc3ncc(-c4cnn(C)c4)nc3c2)c1 [Erdafitinib] | 13.2 | -123 |
| C[C@H](NC(=O)c1sccc1OCc1ccc(Cl)cc1)c1ccccc1 | 16.6 | -50.9 |
| CO[C@@H]1[C@H](N(C)C(=O)c2ccccc2)C[C@H]2O[C@]1(C)n1c3ccccc3c3c4c(c5c6ccccc6n2c5c31)C(=O)NC4 [Midostaurin] | 1.48 | -62.7 |

| Compound | AC50 cell viability (HCT116 [1]) [µM] | efficacy (HCT116 [2]) [%] |
| --- | --- | --- |
| COc1cc([C@@H]2c3cc4c(cc3[C@H](O)[C@H]3COC(=O)[C@@H]23)OCO4)cc(OC)c1OC [Picropodophyllin] | 0.417 | -56.6 |
| O=C(Nc1ccc(OC(F)(F)Cl)cc1)c1cnc(N2CC[C@@H](O)C2)c(-c2ccn[nH]2)c1 [Asciminib] | 20.9 | -80.6 |
| CN(C)Cc1cccc(N/C(=C2\C(=O)Nc3cc(C(=O)N(C)C)ccc32)c2ccccc2)c1 | 13.2 | -69.8 |
| CC[C@@]1(O)C[C@H](O[C@H]2C[C@H](N(C)C)[C@H](O[C@H]3C[C@H](O)[C@H](O[C@H]4CCC(=O)[C@H](C)O4)[C@H](C)O3)[C@H](C)O2)c2c(cc3c(c2O)C(=O)c2c(O)cccc2C3=O)[C@H]1C(=O)OC [Aclarubicin] | 3.72 | -89.2 |
| COc1cccc2c1CCCC2CCCN1CCN(C2CCCCC2)CC1 (stereo unspecified) [PB-28] | 16.6 | -91.3 |
| CCC[C@H](Nc1nc(-c2ccc(NC(=O)NCC)c(OC)c2)ncc1C)c1cccnc1 [Lexibulin hydrochloride] | 0.0742 | -73.5 |
| CCC[S+](=O)([O-])Nc1ccc(F)c(C(=O)c2c[nH]c3ncc(Cl)cc23)c1F [PLX-4720] | 16.6 | -38.4 |
| CCn1cc(-c2ccnc3[nH]c(-c4cccc(CN(C)C)c4)cc23)c(-c2ccc(NC(=O)N(C)C)cc2)n1 | 5.25 | -101 |
| C[C@H]1CNC(=O)c2cnn3ccc(nc23)N[C@H](C)c2cc(F)ccc2O1 [TPX-0005] | 2.35 | -87.5 |
| Cn1ncc(Cl)c1-c1cc(C(=O)N[C@H](CN)Cc2ccc(F)c(F)c2)sc1Cl | 16.6 | -116 |
| CO[C@@H](C)Cn1c(=O)n(C)c2cnc3ccc(-c4cncc(C(C)(C)O)c4)cc3c21 | 1.05 | -82.3 |
| Cc1ccc(C(=O)Nc2ccc(CN3CCN(C)CC3)c(C(F)(F)F)c2)cc1C#Cc1cnc2[nH]ncc2c1 [GZD-824] | 0.934 | -121 |
| Cc1[nH]c(/C=C2\C(=O)Nc3ccc(F)cc32)c(C)c1C(=O)NC[C@H](O)CN1CCOCC1 | 2.63 | -73 |
| COc1cc(Oc2ccnc3cc(OC)c(OC)cc23)ccc1NC(=O)NC(C)c1nccs1 (stereo unspecified) | 20.9 | -63.5 |
| Nc1ncnc2c1c(-c1cccc(OCc3ccccc3)c1)cn2[C@H]1C[C@H](CN2CCCC2)C1 [ADW-742] | 16.6 | -84.3 |
| C[S+]([O-])c1ccc(-c2nc(-c3ccc(F)cc3)c(-c3ccncc3)[nH]2)cc1 (stereo unspecified) | 18.6 | -83.2 |
| CCCCC(=O)OCC(=O)[C@]1(O)Cc2c(O)c3c(c(O)c2[C@@H](O[C@H]2C[C@H](NC(=O)C(F)(F)F)[C@H](O)[C@H](C)O2)C1)C(=O)c1c(OC)cccc1C3=O [Valrubicin] | 1.86 | -88.9 |
| CC/C(=C(\c1ccccc1)c1ccc(OCCN(C)C)cc1)c1ccccc1 [Tamoxifen] | 15.2 | -87.8 |
